Experimental data reported in PubChem BioAssay (NCI).
Where “and” joins values, the source holds several entries; their conditions need not be identical. Equal entries are not always repeated.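 Cells were grown in 96-well plates and exposed to each compound for 48 hours at five concentrations; endpoints were interpolated linearly between bracketing concentrations, or set to the highest concentration if not reached. Abbreviation: GI50, concentration required for 50% inhibition of growth. The concentration for full growth arrest is given as TGI.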

Legend:
Test in all cases: inhibition of tumour cell growth, NCI panel, 48 h
[1] = tested on: PC-3 prostate
[2] = tested on: T-47D breast
[3] = tested on: UO-31 renal
[4] = tested on: ACHN renal
[5] = tested on: NCI-H460 lung
[6] = tested on: UACC-62 melanoma
[7] = tested on: RXF 393 renal
[8] = tested on: A498 renal
[9] = tested on: HS 578T breast
[10] = tested on: HL-60(TB) leukemia

| SMILES | GI50 [1] [µM] | TGI [1] | GI50 [2] [µM] | TGI [2] | GI50 [3] | TGI [3] | GI50 [4] | TGI [4] | GI50 [5] | TGI [5] | GI50 [6] [µM] | TGI [6] | GI50 [7] [µM] | TGI [7] | GI50 [8] | TGI [8] | GI50 [9] [µM] | TGI [9] | GI50 [10] [µM] | TGI [10] [µM] |
| --- | --- | --- | --- | --- | --- | --- | --- | --- | --- | --- | --- | --- | --- | --- | --- | --- | --- | --- | --- | --- |
| Nc1nc2ccc([C@@H]3Nc4ccc5[nH]ncc5c4[C@H]4[C@H]5CCC(C5)[C@H]43)cc2s1 | 1.04 | 3.2 µM | 0.79 | 6.16 µM | 1.78 µM | 12.2 µM | 1.37 µM | 9.57 µM | 0.81 µM | 2.32 µM | 1.51 | 3.05 µM | 1.47 | 7.56 µM | 0.288 µM | 1.78 µM | 1.39 | 4.4 µM | 0.345 | 1.37 |
| O=C(Nc1cnn2ccc(N3CCC[C@@H]3c3cc(F)ccc3F)nc12)N1CC[C@H](O)C1 | > 100 | > 100 µM | > 100 | > 100 µM | > 100 µM | > 100 µM | > 100 µM | > 100 µM | > 100 µM | > 100 µM | > 100 | > 100 µM | > 100 | > 100 µM | > 100 µM | > 100 µM | > 100 | > 100 µM | > 100 | > 100 |
| COC(=O)[C@]12CC[C@@H](C)[C@H](C)[C@@H]1C1=CC[C@@H]3[C@@]4(C)C(C=O)=C[C@@](C)(COC(C)=O)[C@@H]4[C@H](O)C[C@@]3(C)[C@]1(C)CC2 | 1.73 | 5.74 µM | 2.75 | 14.2 µM | 1.57 µM | 3.84 µM | 1.92 µM | 4.32 µM | 1.89 µM | 3.9 µM | 1.76 | 4.1 µM | 1.56 | 3.03 µM | 2.6 µM | 10.2 µM | 2.67 | 9.43 µM | 2.53 | 5.42 |
| C/C=C(\C)C(=O)O[C@@H]1C(O)[C@H]2OC(COC(=O)CCC(=O)CCCCCC[C@H](CCCCC)O[C@@H]3OC(C)[C@H](OC(C)=O)C(O)[C@H]3O2)[C@H]1OC(=O)/C=C/c1ccccc1 (some centres undefined) | < 0.0132 | 16.7 µM | < 0.01 | 0.761 µM | < 0.01 µM | 8.34 µM | 0.0175 µM | 12.3 µM | < 0.01 µM | > 60.9 µM | 0.0176 | 1.01 µM | < 0.01 | 4.99 µM | 0.12 µM | 5.59 µM | < 0.01 | 23.3 µM | 0.127 | 18.9 |
| COc1cc(/C=C/C(=O)c2cc(F)c(Cl)cc2Cl)cc(OC)c1OC | 12.5 | 85.8 µM | 41.2 | > 100 µM | 16.3 µM | 32.8 µM | 60.6 µM | > 100 µM | 48.3 µM | > 100 µM | 24.8 | > 100 µM | 17.2 | 62.2 µM | > 100 µM | > 100 µM | 28.7 | > 100 µM | 16.6 | 71.9 |
| COc1cc2c3c(n(CCN)c(=O)c2cc1OC)-c1cc2c(cc1C3=O)OCO2 | 0.671 | 2.89 µM | 0.143 | 1.36 µM | 0.226 µM | 1.91 µM | 0.275 µM |  | < 0.01 µM | 3.24 µM | 0.134 | 1.51 µM | 1.54 | 4.06 µM | 3.48 µM | 18.9 µM | 1.85 | 4.51 µM |  | > 100 |
| COc1cc2cc(Oc3ccc(NC(=O)Nc4ccccc4)cc3)c(C)nc2cc1OCCN1CCCCC1 | 4.49 | 9.83 µM | 6.12 | 14.5 µM | 3.87 µM | 7.94 µM | 5.74 µM | 10.3 µM | 6.05 µM | 11.2 µM | 5.89 | 11 µM | 4.42 | 8.99 µM | 4.75 µM | 9.3 µM | 5.79 | 14.2 µM | 6.43 | 13.3 |
| COc1cc(-c2oc3c(OC)c(OC)cc(O)c3c(=O)c2OC)ccc1O |  | > 50 µM |  | 34.4 µM | 3.88 µM and 8.21 µM | > 100 µM | 1.84 µM and 4.71 µM |  | 4 µM and 8.51 µM | > 100 µM |  | > 100 µM |  | > 100 µM | 3.38 µM and 16.6 µM | > 100 µM and 42.4 µM |  | 29.7 µM |  | 7.58 |
| O=c1cccc(C#Cc2ccccc2)o1 | 3.41 | > 40.4 µM | 8.67 | 46 µM | 3.41 µM | > 35.1 µM | 7.7 µM | 21.5 µM | 3.91 µM | > 100 µM | 6.32 | 19.7 µM | 6.27 | 61.6 µM | 2.38 µM | 7.02 µM | 6.5 | 25.9 µM | 0.71 | 8.17 |
| COc1cccc(/C=C/C(=O)c2ccc(Cl)cc2Cl)c1OC | 4.32 | 17.1 µM | 8.59 | 25.5 µM | 3.43 µM | 17.4 µM | 14.3 µM | 28 µM | 8.37 µM | > 100 µM | 10.6 | 24 µM | 4.07 | 15.8 µM | 16.2 µM | 30.5 µM |  | 39.8 µM | 2.4 | 5.85 |
| COC(=O)c1ccc(=O)c2nc3/c(=C/O)c(O)cc(=O)c3[nH]c12 | 0.525 | 17.1 µM and 16.6 µM | 1.29 | 8.65 µM and 48.2 µM | 0.578 µM | 8.11 µM and 18 µM | 0.478 µM | 16.6 µM and 14.5 µM | 0.357 µM | 23.8 µM and 19.7 µM | 1.01 | 7.26 µM and 7.01 µM | 0.637 | 43.3 µM and 17.1 µM |  | 30.8 µM and 17.4 µM | 0.301 | 23 µM and 20.1 µM | 0.601 | 19.3 |
| N#CC1C(=N)Cc2ccccc2-c2ccccc21 (centres undefined) | 12.7 | > 100 µM | 5.61 | 73.3 µM | 4.06 µM | 31.2 µM | 12.8 µM | 82.5 µM | 3.92 µM | 18.3 µM | 3.83 | 17.1 µM | 9.84 | 82.9 µM | 2.78 µM | 14 µM | 5.38 | 65.3 µM | 3.23 | 16.6 |
